How the values were obtained:
[1] = in vitro; conditions: human, serum
[2] = tested on: tremor in mice; conditions: mouse, in vivo
[3] = molecular target: Cav2.2 channel (Homo sapiens, UniProt Q00975); experiment: cell-based; format: cell-based
[4] = tested on: coordinated locomotion in mice; conditions: mouse, in vivo
[5] = format: physicochemical; conditions: pH 7.4

Sequence of Cav2.2 channel (Q00975 whole entry, looked up): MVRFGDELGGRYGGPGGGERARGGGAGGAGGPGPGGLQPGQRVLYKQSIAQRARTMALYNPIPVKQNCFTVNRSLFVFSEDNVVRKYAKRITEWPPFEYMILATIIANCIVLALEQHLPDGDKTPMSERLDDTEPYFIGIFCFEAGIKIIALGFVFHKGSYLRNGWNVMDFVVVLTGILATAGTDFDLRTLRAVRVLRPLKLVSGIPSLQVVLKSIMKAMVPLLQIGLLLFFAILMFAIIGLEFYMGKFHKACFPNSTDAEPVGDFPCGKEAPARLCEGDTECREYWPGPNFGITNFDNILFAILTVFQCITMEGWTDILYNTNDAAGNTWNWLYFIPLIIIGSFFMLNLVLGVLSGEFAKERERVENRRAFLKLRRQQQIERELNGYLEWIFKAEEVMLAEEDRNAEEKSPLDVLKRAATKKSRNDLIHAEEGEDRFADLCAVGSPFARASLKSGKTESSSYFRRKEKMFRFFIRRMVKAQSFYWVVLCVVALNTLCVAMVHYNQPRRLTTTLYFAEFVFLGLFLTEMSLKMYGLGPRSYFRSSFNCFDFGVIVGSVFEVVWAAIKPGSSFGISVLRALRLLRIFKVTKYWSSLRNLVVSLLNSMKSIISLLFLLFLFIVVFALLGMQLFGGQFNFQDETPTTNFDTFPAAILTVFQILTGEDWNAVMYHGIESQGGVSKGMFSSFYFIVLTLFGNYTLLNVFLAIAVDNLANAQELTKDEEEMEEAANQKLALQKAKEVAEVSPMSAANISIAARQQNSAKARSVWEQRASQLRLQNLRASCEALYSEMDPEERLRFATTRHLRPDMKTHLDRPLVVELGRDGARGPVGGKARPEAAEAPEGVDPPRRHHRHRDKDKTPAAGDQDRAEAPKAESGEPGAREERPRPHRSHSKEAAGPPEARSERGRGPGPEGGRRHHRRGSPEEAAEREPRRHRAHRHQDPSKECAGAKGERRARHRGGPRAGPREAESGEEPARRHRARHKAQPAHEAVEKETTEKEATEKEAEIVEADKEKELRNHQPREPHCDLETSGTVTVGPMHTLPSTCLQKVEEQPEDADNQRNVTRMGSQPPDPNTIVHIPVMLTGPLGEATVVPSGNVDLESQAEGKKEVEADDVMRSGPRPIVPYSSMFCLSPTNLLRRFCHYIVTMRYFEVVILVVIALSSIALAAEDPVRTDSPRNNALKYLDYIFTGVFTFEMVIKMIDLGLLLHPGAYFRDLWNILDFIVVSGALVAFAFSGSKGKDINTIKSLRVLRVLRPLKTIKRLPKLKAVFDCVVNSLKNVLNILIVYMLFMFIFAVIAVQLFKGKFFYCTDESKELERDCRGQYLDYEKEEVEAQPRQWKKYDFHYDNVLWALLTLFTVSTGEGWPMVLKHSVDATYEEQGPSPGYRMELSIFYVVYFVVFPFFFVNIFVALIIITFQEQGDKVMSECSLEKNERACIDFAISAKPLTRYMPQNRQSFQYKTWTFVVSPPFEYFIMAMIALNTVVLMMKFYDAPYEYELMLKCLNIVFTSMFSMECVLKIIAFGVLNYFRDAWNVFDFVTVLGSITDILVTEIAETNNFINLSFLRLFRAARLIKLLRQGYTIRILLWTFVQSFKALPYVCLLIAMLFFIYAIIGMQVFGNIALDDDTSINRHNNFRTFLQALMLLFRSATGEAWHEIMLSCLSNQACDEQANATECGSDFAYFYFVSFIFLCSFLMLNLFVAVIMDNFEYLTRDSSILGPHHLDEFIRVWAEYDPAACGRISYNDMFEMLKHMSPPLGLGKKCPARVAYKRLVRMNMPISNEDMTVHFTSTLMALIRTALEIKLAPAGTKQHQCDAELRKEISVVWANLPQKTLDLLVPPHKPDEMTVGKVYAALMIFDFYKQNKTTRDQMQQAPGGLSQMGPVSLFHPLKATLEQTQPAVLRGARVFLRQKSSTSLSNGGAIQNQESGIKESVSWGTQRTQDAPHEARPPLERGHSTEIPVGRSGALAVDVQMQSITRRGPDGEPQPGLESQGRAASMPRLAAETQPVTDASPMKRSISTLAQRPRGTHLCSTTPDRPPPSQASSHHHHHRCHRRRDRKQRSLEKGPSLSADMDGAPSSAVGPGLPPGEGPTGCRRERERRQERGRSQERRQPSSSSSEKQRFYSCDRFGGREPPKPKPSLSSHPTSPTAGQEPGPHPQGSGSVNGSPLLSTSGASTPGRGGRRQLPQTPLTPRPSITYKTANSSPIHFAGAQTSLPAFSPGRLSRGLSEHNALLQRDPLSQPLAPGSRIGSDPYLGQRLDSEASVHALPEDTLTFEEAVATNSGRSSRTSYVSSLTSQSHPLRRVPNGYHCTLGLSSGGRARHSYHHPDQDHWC

## CCCCCCCCCCCCCC(=O)N[C@H]1CSSC[C@@H]2NC(=O)[C@@H]3CSSC[C@@H](C(N)=O)NC(=O)[C@H](CCCCN)NC(=O)CNC(=O)[C@H](CO)NC(=O)[C@H](CCCNC(=N)N)NC(=O)[C@H](CSSC[C@H](NC(=O)[C@H](CCCCN)NC(=O)[C@H](C)NC(=O)CNC(=O)[C@H](CCCCN)NC(=O)CNC(=O)[C@H](CCCCN)NC1=O)C(=O)N[C@@H](CO)C(=O)N[C@@H](CCCNC(=N)N)C(=O)N[C@@H](CC(C)C)C(=O)N[C@@H](CCSC)C(=O)N[C@@H](Cc1ccc(O)cc1)C(=O)N[C@@H](CC(=O)O)C(=O)N3)NC(=O)[C@H](CO)NC(=O)CNC(=O)[C@H]([C@@H](C)O)NC2=O [Myr-MVIIA]
[1]
  remaining at 24 h: 67.8%
[2]
  tremor intensity (4-point scale 0-3): no tremor symptoms
[3]
  IC50: 92.1 nM
  reduction of ICa amplitude: 66.83 ± 0.16%
[4]
  effect on coordinated locomotion: did not affect coordinated locomotion

## CSCC[C@@H]1NC(=O)[C@H](CC(C)C)NC(=O)[C@H](CCCNC(=N)N)NC(=O)[C@H](CO)NC(=O)[C@@H]2CSSC[C@@H]3NC(=O)[C@H](CO)NC(=O)CNC(=O)[C@H]([C@@H](C)O)NC(=O)[C@H](CSSC[C@H](N)C(=O)N[C@@H](CCCCN)C(=O)NCC(=O)N[C@@H](CCCCN)C(=O)NCC(=O)N[C@@H](C)C(=O)N[C@@H](CCCCN)C(=O)N2)NC(=O)[C@H](CSSC[C@@H](C(N)=O)NC(=O)[C@H](CCCCN)NC(=O)CNC(=O)[C@H](CO)NC(=O)[C@H](CCCNC(=N)N)NC3=O)NC(=O)[C@H](CC(=O)O)NC(=O)[C@H](Cc2ccc(O)cc2)NC1=O [MVIIA, ω-conotoxin MVIIA, reference compound]
[2]
  tremor intensity (4-point scale 0-3): highest tremor intensity at 30–60 min, after which it gradually decreased
[3]
  reduction of ICa amplitude: 100.00 ± 0.00%
[5]
  particle size (dynamic light scattering): 48.74 ± 16.07 nm
[4]
  effect on coordinated locomotion: significant at 30–60 min and gradually decreased from 2 to 4 h

From publication PMC10144222 (Marine Drugs, 2023)
